Common to all, as to format: cell-based
One experiment concerns the target T1, humanP2X7 (Homo sapiens, UniProt Q99572).
T1 construct: expressed in transfected cells; host or cells: HEK-293
T1 sequence (Q99572 1-595): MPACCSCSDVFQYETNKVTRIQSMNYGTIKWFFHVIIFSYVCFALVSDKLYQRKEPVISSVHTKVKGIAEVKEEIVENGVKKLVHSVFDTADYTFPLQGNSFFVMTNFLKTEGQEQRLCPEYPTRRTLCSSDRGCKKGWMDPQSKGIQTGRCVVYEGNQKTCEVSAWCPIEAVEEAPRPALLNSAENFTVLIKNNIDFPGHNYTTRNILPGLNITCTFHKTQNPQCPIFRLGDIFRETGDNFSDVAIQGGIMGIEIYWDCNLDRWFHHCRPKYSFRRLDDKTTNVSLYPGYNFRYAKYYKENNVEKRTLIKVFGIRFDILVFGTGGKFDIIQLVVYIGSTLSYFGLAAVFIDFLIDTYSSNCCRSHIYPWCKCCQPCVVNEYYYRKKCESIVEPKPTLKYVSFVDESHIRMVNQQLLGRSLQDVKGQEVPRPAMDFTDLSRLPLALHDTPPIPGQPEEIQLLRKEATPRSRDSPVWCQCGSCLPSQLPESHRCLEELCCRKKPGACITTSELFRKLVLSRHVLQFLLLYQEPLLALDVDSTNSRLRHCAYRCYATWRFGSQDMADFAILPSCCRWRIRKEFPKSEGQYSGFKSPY
Nature of the experiment: P2X7 channel calcium-influx assay (Fluo-8, FLIPR TETRA), human P2X7. The conditions noted are these: HEK-293 cells stably transfected with P2X7; Bz-ATP at EC80; low divalent cation buffer; read-out: humanP2X7 (activity range). The method, boiled down:
(§1)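 HEK-293 cells stably expressing the respective species' P2X7, Fluo-8 NW loaded 1 h at RT in low divalent buffer (0.3 mM Ca2+, 0 mM Mg2+). Compound preincubated 5 min, then Bz-ATP at EC80; FLIPR calcium influx over 3 min. IC50 from % inhibition relative to reference antagonist A438079, reported as potency bins.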

The next experiment addresses T2, human P2X7 channel (Homo sapiens, UniProt Q99572).
T2 construct: expressed in transfected cells; host or cells: HEK-293
T2 sequence (Q99572 1-595): T1 sequence (Q99572 1-595)
Nature of the experiment: human P2X7 channel assay by automated patch-clamp (QPatch 16X). The conditions noted are these: HEK-293 cells expressing P2X7; current evoked by 100 microM BzATP; whole-cell, held at -80 mV; read-out: human Q-Patch (activity range). An outline of the steps:
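Whole-cell patch clamp on HEK-293 cells expressing P2X7, room temperature, held at −80 mV, CsF internal and NaCl external (pH 7.4). Currents evoked by 100 microM BzATP, four controls then with compound at 1, 10, 100 and 1000 nM; peak inward current normalized, IC50 from dose-response fit, reported as potency bins.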
In general terms: In patch-clamp work, channel activity is measured electrically.

Another experiment concerns the target T3, ratP2X7 (Rattus norvegicus, UniProt Q64663).
T3 construct: expressed in transfected cells; host or cells: HEK-293
T3 sequence (Q64663 1-595): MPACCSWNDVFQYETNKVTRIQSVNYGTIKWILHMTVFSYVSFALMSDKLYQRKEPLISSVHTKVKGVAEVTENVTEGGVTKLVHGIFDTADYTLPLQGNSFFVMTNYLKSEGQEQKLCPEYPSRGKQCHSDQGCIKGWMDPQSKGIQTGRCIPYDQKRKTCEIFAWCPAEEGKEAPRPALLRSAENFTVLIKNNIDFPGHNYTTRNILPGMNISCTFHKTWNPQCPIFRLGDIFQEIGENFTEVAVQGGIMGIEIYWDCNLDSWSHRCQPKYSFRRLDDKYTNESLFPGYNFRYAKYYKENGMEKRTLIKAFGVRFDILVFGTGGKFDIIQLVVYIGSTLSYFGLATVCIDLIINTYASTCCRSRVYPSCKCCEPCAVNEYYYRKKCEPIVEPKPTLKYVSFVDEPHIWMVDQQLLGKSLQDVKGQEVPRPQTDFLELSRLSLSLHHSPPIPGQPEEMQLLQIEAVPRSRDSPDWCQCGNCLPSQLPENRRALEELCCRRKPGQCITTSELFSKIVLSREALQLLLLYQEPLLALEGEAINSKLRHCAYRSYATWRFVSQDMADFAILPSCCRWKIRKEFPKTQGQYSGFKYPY
Nature of the experiment: P2X7 channel calcium-influx assay (Fluo-8, FLIPR TETRA), rat P2X7. The conditions noted are these: HEK-293 cells stably transfected with P2X7; Bz-ATP at EC80; low divalent cation buffer; read-out: ratP2X7 (activity range). An outline of the steps:
as §1

Another experiment addresses T4, mouseP2X7 (Mus musculus, UniProt Q9Z1M0).
T4 construct: expressed in transfected cells; host or cells: HEK-293
T4 sequence (Q9Z1M0 1-595): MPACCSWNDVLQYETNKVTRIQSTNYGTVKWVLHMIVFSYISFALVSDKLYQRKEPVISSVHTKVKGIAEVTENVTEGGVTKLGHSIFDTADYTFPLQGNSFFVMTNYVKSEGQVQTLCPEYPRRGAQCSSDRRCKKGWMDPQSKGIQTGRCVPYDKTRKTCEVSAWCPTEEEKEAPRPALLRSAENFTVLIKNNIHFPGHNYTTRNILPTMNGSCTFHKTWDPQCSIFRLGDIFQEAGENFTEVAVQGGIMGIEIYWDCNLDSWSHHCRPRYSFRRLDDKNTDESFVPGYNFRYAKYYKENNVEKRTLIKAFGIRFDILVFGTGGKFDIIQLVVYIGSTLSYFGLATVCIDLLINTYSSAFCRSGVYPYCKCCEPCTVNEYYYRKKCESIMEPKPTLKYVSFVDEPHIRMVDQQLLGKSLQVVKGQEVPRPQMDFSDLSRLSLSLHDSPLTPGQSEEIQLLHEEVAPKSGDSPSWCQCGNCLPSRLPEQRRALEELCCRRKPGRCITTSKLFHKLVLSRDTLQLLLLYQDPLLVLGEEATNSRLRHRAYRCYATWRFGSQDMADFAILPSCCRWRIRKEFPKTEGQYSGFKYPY
Nature of the experiment: P2X7 channel calcium-influx assay (Fluo-8, FLIPR TETRA), mouse P2X7. The conditions noted are these: HEK-293 cells stably transfected with P2X7; Bz-ATP at EC80; low divalent cation buffer; read-out: mouseP2X7 (activity range). The method, boiled down:
as §1

As to `CCn1nc(Cc2c(F)cccc2Cl)n(CC2CCC(F)(F)C2)c1=O` (stereo not drawn) [Example 65, 5-[(2-chloro-6-fluorophenyl)methyl]-4-[(3,3-difluorocyclopentyl)methyl]-2-ethyl-2,4-dihydro-3H-1,2,4-triazol-3-one], the IC50 on humanP2X7 lay within 1000 to 10000 nM; at human P2X7 channel, 1000 to 10000 nM; on ratP2X7, 200 to 1000 nM; on mouseP2X7, 10000 to 30000 nM.

For `O=c1n(CC2CC2)nc(Cc2c(F)cccc2Cl)n1CC1CCC(F)(F)C1` (stereo not drawn) [Example 66, 5-[(2-chloro-6-fluorophenyl)methyl]-2-(cyclopropylmethyl)-4-[(3,3-difluorocyclopentyl)methyl]-2,4-dihydro-3H-1,2,4-triazol-3-one], the IC50 on humanP2X7 was 200 to 1000 nM; at human P2X7 channel, 100 to 1000 nM; at ratP2X7, under 200 nM; at mouseP2X7, 1000 to 10000 nM.

In the case of `O=c1n(CC(F)(F)F)nc(Cc2c(F)cccc2Cl)n1CC1CCCCCC1` [Example 67, 5-[(2-chloro-6-fluorophenyl)methyl]-4-(cycloheptylmethyl)-2-(2,2,2-trifluoroethyl)-2,4-dihydro-3H-1,2,4-triazol-3-one], the IC50 on humanP2X7 was under 200 nM; at human P2X7 channel, 10 to 100 nM; on ratP2X7, under 200 nM; at mouseP2X7, under 200 nM.

Take `CN1CCCCC1Cn1c(Cc2c(F)cccc2Cl)nn(CC(F)(F)F)c1=O` (stereo not drawn) [Example 68, 5-[(2-chloro-6-fluorophenyl)methyl]-4-[(1-methylpiperidin-2-yl)methyl]-2-(2,2,2-trifluoroethyl)-2,4-dihydro-3H-1,2,4-triazol-3-one]: the IC50 on humanP2X7 lay in the range of 1000 to 10000 nM; on human P2X7 channel, 1000 to 10000 nM; on ratP2X7, 200 to 1000 nM; at mouseP2X7, 1000 to 10000 nM.

In the case of `O=c1n(CC2CC2)nc(Cc2c(F)cccc2Cl)n1CC1CCC(C(F)(F)F)CC1` (stereo not drawn) [Example 69, 5-(2-chloro-6-fluorobenzyl)-2-(cyclopropylmethyl)-4-((4-(trifluoromethyl)cyclohexyl)methyl)-2,4-dihydro-3H-1,2,4-triazol-3-one], the IC50 at humanP2X7 is under 200 nM; at human P2X7 channel it was 10 to 100 nM; at ratP2X7, under 200 nM; on mouseP2X7 it was 200 to 1000 nM.

Consider `O=c1n(CC(F)(F)F)nc(CC2CCC(F)(F)CC2)n1Cc1c(F)cccc1Cl` [Example 70, 4-[(2-chloro-6-fluorophenyl)methyl]-5-[(4,4-difluorocyclohexyl)methyl]-2-(2,2,2-trifluoroethyl)-2,4-dihydro-3H-1,2,4-triazol-3-one], for which the IC50 is 200 to 1000 nM on humanP2X7, 100 to 1000 nM at human P2X7 channel, under 200 nM on ratP2X7 and 1000 to 10000 nM on mouseP2X7.

(Values after patent publication US20240368092A1, “2,4-Dihydro-3H-1,2,4-Triazol-3-One P2X7 Antagonists” (Breye Therapeutics ApS, priority 2021, published 2024).)
